Source: patent publication US5391800A, “Method for inhibition of cell motility by sphingosine-1-phosphate, its derivatives and mimetics and method of synthesizing sphingosine-1-phosphate and its derivatives” (The Biomembrane Institute, priority 1993, dated 1995)
“Also recorded” adds a separate entry of the source.

Legend:
[1] = test system: PKC of B16/F1 melanoma cells; assay: PKC activity of B16/F1 melanoma cells (32P incorporation into histone IIIS); assay type: biochemical, mouse; conditions: for Inhibitory effect on PKC activity: B16/F1 cells; for % PKC activity: control = 100%, mean ± S.E., n = 3; for PKC inhibition: concentration not given
Method: Effects of SPN derivatives on protein kinase C activity and cell growth of B16/F1 cells was also investigated. […] Toxicity of these compounds to B16/F1 cells and human neutrophils was also examined using a trypan blue exclusion assay after 1 hour incubation with the compounds.
*Mean ± S.E. (n = 3). For controls (defined as 100%), PKC activity was
33225 cpm per tube per 20 min, as measured by ^32 P incorporation int

[2] = test system: B16/F1 melanoma cells; assay: Growth of B16/F1 melanoma cells (cell count after 48 hr); assay type: cell-based, mouse; conditions: for Growth-inhibitory effect / activity at 10 µM: 10 μM; for Growth-inhibitory effect: B16/F1 cells
Method: *Mean ± S.E. (n = 3). For controls (defined as 100%), cell number was
10^5 cells were seeded and
cultured on a 35 mm plastic dish in Dulbecco's modified Eagle's medium
containing 2% fetal bovine serum in the presence or absence of SPN
derivatives. 48 hr later, cells were counted.

[3] = test system: B16/F1 melanoma cells; assay: Chemotactic motility of B16/F1 cells through MATRI-GEL-coated transwell filter; assay type: cell-based, mouse; conditions: for % motility: percent relative to control, n = 3 or 4, concentration not given
Method: (§1) The assays for determining chemotactic cell motility and chemoinvasion can be performed using transwell plates with a polycarbonate membrane filter (pore size 8 μm) (Costar Scientific, Cambridge, Mass.). Aliguots, e.g., 50 μl, of an aqueous solution of MATRI-GEL (Collaborative Research, Bedford, Mass.) containing SPN-1-P or other inhibitor (e.g., 20 μg/ml for chemotactic motility assay or 200 μg/ml for chemoinvasion assay), is added to each well and dried overnight. The filter is then fitted onto the lower chamber plate. The lower chamber can contain conditioned medium (CM) (i.e., medium used for splenic stromal cell culture, and containing motility factor secreted by these cells), e.g., 0.6 ml, with or without SPN-1-P or other inhibitor. To the upper chamber is added, e.g., about 100 μl, of cell suspension (5×10^4 cells/ml for invasion assay, 5×10^5 cells/ml for motility assay), which is then incubated in 5% CO2 at 37° C. for 70-72 hours (invasion assay) or 20 hours (motility assay). After incubation, cells remaining in the upper chamber are wiped off with a cotton swab, and cells which had migrated to the lower chamber side of the filter are fixed in methanol for 30 seconds and stained with 0.05% toluidine blue. The filter is removed, the stain is solubilized in 10% acetic acid (e.g., 0.1 ml for invasion assay, 0.5 ml for motility assay), and color intensity (optical density) is quantitated by ELISA reading at 630 nm. Using SPN-1-P, a linear relationship was observed between cell number and toluidine blue optical density (FIG. 7).
(§2) Assays were performed using transwell plates with polycarbonate membrane filters (pore size 8 μm) (Costar Scientific, Cambridge, Mass.). 50 μl aliguots of an aqueous solution of MATRI-GEL (Collaborative Research, Bedford, Mass.) containing 20 μg/ml (for chemotactic motility assay) or 200 μg/ml (for chemoinvasion assay) were added to each well and dried overnight. The filter was fitted onto the lower chamber plate. The lower chamber contained 0.6 ml conditioned medium (CM) (i.e., medium used for splenic stromal cell culture, and containing motility factor secreted by these cells) with or without the suspected inhibitor. To the upper chamber was added 100 μl of cell suspension (5×10^4 cells/ml for invasion assay, 5×10^5 cells/ml for motility assay), which was then incubated in 5% CO2 at 37° C. for 70-72 hours (invasion assay) or 20 hours (motility assay). After incubation, cells remaining in the upper chamber were wiped off with a cotton swab, and cells which had migrated to the lower chamber side of the filter were fixed in methanol for 30 seconds and stained with 0.05% toluidine blue. The filter was removed, the stain was solubilized in 10% acetic acid (0.1 ml for invasion assay, 0.5 ml for motility assay), and color intensity (optical density) was quantitated by ELISA reading at 630 nm. A linear relationship was observed between cell number and toluidine blue optical density (FIG. 7.).
In experiments with different quantities of MATRI-GEL, cell migration through transwell filter was maximal with 1 μg/well was applied, and when CM was used (FIG. 8). Therefore, chemotactic cell motility, as affected by various SPN derivatives, was assayed under these conditions.
*Mean ± S.E. of percent relative to control (n = 4). Actual O.D. value
and 0.147 (HT1080). 6 × 10^4 cells were placed on a transwell
filter coated with 1.0 μg MATRIGEL in the upper chamber, and cultured
for 18 hours in the presence of CM and SPN1-P in the lower chamber.

[4] = test system: B16/F1 melanoma cells; assay: Chemoinvasion of B16/F1 cells through thick MATRI-GEL layer on transwell filter; assay type: cell-based, mouse; conditions: for Effect on invasion compared with SPN-1-P: FIG. 10; for % invasion: percent relative to control, mean ± S.E., n = 3 or 4, concentration not given, 4200 min
Method: as §1, §2
Chemoinvasion was measured by the ability of tumor cells in CM (as described above) to migrate through a thick layer of MATRI-GEL during a prolonged incubation period (70 hours). This property is distinct from chemotactic cell motility, which involves a much shorter incubation period (20 hours) and a thin layer of MATRI-GEL. For the chemoinvasion assay, 10 μg of MATRI-GEL was applied to a polycarbonate transwell filter and migration was observed following 70 hours incubation (based on results shown in FIG. 8).

[5] = Mus musculus, B16-F1, 48 hr, control = 100%, mean ± S.E., n = 3
[6] = comparison with other sphingolipids

| SMILES | Inhibitory effect on PKC activity ([1]; 75 μM) | % PKC activity ([1]; 75 μM) [%] | PKC inhibition [1] | Growth-inhibitory effect [2] | activity at 1 µM [2, 5] [%] | activity at 5 µM [2, 5] [%] | activity at 10 µM [2, 5] [%] | % motility ([3]; mean ± S.E.) [%] | Effect on invasion compared with SPN-1-P ([4]; 70 hours) | % invasion [4] [%] | other results |
| --- | --- | --- | --- | --- | --- | --- | --- | --- | --- | --- | --- |
| CCCCCCCCCCCCC/C=C/[C@@H](O)[C@H](CO)[N+](C)(C)C [TMS, N,N,N-trimethylsphingosine] | strong inhibitory effect | 16 ± 3 | in striking contrast to DMS and TMS, SPN-1-P does not inhibit PKC | strong | 88 ± 7 | 77 ± 8 | 11 ± 1 | 100 ± 19 | weaker effect | 75 ± 8 | Inhibition of motility ([3]; 10^-5 M, 20 hour): only weak inhibition of motility |
| CCCCCCCCCCCCC/C=C/[C@@H](O)[C@@H](N)CO [SPN, sphingosine] | strong inhibitory effect | 34 ± 7 |  | moderate growth-inhibitory effect | 101 ± 1 | 87 ± 10 | 78 ± 4 |  | weaker effect | 16 ± 7 | inhibition at 10 µM ([3]; Mus musculus, B16-F1, 20 h, read-out: Motility blocked): 100% |
| CCCCCCCCCCCCC/C=C/[C@@H](O)[C@@H](N)COP(=O)(O)O [SPN-1-P, sphingosine-1-phosphate] | no inhibitory effect | 108 ± 32 | does not inhibit PKC | no growth-inhibitory effect | 105 ± 10 | 96 ± 2 | 87 ± 10 | 5 ± 1 |  |  | % PKC activity ([1]; 10 μM): 121 ± 10%; activity at 0.01 µM ([2]; Mus musculus, B16-F1, 0.01 μM, 48 hr, control = 100%, mean ± S.E., n = 3): 103 ± 10%; activity at 0.1 µM ([2]; Mus musculus, B16-F1, 0.1 μM, 48 hr, control = 100%, mean ± S.E., n = 3): 97 ± 5%; Inhibition of B16/F1 motility, comparison ([3]; FIG. 9, 20 hour): inhibited most strongly; also recorded: same dose-dependent inhibitory effect on cell motility; inhibition at 0.1 µM ([3]; Mus musculus, B16-F1, 10^-7 M, 20 hour, CM, lower chamber, read-out: Motility blocked): 100%; inhibition at 0.01 µM ([3]; Mus musculus, B16-F1, 10^-8 M, 20 hour, CM, lower chamber, read-out: Motility blocked): 90%; activity at 0.001 µM ([3]; Mus musculus, B16-F1, F1, 0.001 μM, 18 hours, relative to control, mean ± S.E., n = 4): 82 ± 44%; activity at 0.01 µM ([3]; Mus musculus, B16-F1, F1, 0.01 μM, 18 hours, relative to control, mean ± S.E., n = 4): 12 ± 7%; activity at 0.1 µM ([3]; Mus musculus, B16-F1, F1, 0.1 μM, 18 hours, relative to control, mean ± S.E., n = 4): 6 ± 2%; activity at 1 µM ([3]; Mus musculus, B16-F1, F1, 1.0 μM, 18 hours, relative to control, mean ± S.E., n = 4): 8 ± 2%; Susceptibility of B16/F1 cells (chemotactic motility) ([3]; Table V, in words): high; Inhibition of cell motility compared with other sphingolipids [3, 6]: much stronger than that for SPN, N,N-dimethylsphingosine (DMS), or N,N,N-trimethylsphingosine (TMS); also recorded: unexpectedly superior inhibition; Inhibition of invasion ([4]; 10^-8 or 10^-7 M, 70 hours): strongly inhibited; Inhibition of chemoinvasion compared with other sphingolipids [4, 6]: unexpectedly superior inhibition |
